ChEMBL document CHEMBL1123766, “2-Amino- and 2-guanidino-1,2,3,4-tetrahydro-1,4-epoxynaphthalenes as conformationally defined analogues of alpha-adrenergic agents” (J Med Chem, 1987)

Key:
[1] = molecular target: T1, Adrenergic receptor alpha-2 (Rattus norvegicus) (UniProt P22086+P19328+P22909); test: Evaluated for alpha-2 adrenergic receptor activity in the field stimulated rat vas deferens preparation.*-confirmed by pretreatment with reserpine (3 mg/kg) 16 hr prior to sacrifice. Stimulatory effects blocked by prazosin (78 nM).
[2] = molecular target: T1, Adrenergic receptor alpha-2 (Rattus norvegicus); test: Approximate efficacy based on maximal effect produced by […] was determined against the alpha-2 adrenergic receptor; assay type: protein assay
[3] = molecular target: T1, Adrenergic receptor alpha-2 (Rattus norvegicus); test: Evaluated for alpha-2 adrenergic receptor activity in the field stimulated rat vas deferens preparation.* Confirmed by pretreatment with reserpine (3 mg/kg) 16 hr prior to sacrifice. Stimulatory effects blocked by prazosin (78 nM). Value estimated in the presen
[4] = molecular target: T1, Adrenergic receptor alpha-2 (Rattus norvegicus); test: Evaluated for alpha-2 adrenergic receptor activity in the field stimulated rat vas deferens preparation.; assay type: tissue-based
[5] = molecular target: T1, Adrenergic receptor alpha-2 (Rattus norvegicus); test: Evaluated for alpha-2 adrenergic receptor activity in the field stimulated rat vas deferens preparation; assay type: tissue-based
[6] = molecular target: T1, Adrenergic receptor alpha-2 (Rattus norvegicus); test: Evaluated for alpha-2 adrenergic receptor activity in the field stimulated rat vas deferens preparation.* Stimulatory effects blocked by prazosin (78 nM).; assay type: tissue-based

Which pD2 [1] does the source give for `COc1ccc(OC)c2c1C1C[C@H](N)C2O1` (some centres undefined) here?
Its pD2 is 5.08.

What about the Efficacy [2] of the same compound?
Its Efficacy is 0.9.

How did the pD2 [3] turn out when `N[C@H]1CC2OC1c1ccccc12` (some centres undefined) was run?
Its pD2 is 4.9.

Which pD2 [4] does the source give for `COc1ccc(OC)c2c1C1C[C@@H](N)C2O1` (some centres undefined) here?
Its pD2 is 3.49.

For `N[C@@H]1CC2OC1c1ccccc12` (some centres undefined), which pD2 [5] is on record?
The pD2 was less than 3.

`COc1ccc(OC)c(C(O)C(C)N)c1` (centres undefined) was tested. Which pD2 [5] did it give?
Its pD2 is 6.48.

What about the Efficacy [2] of the same compound?
The Efficacy was 1.

What does the source list for `COc1ccc(OC)c2c1C1CC(N=C(N)N)C2O1` (centres undefined)?
pD2 [6]: 4.75; Efficacy [2]: 0.7
